The test system of assay [1] is BT474, SKBR3, AU565 and SUM190 cells. The assay is described as follows: Apoptotic cell death (Annexin V FACS) in parental lapatinib-sensitive lines. It counts as cell-based. The conditions noted are these: all four parental sensitive cell lines. On the procedure: (§1) FIG. 2 is a set of graphs showing the percentage of cells undergoing apoptotic cell death for each of the four cell lines and their matched resistant cell line in the presence or absence of lapatinib and/or an MDM2 inhibitor, MI-219, as measured by FACS analysis for Annexin V. Results are expressed as mean +/− SEM of Annexin V positive cells.
(§2) BT474, SKBR3, and AU565 cells were obtained from ATCC. SUM190 cells were obtained from Asterand, Inc. All cell lines were cultured in RPMI medium containing 10% fetal bovine serum (FBS). Lapatinib-resistant cells (rBT474, rSKBR3, rAU565, and rSUM190) were established as previously described^14. Cobleigh, et al. J. Clin. Oncol. 17, 2639-2648 (1999). Lapatinib-resistant cells were grown in the presence of 1 μM lapatinib unless otherwise stated.

In assay [2] the test system is rBT474, rSKBR3, rAU565 and rSUM190 cells. Kind of assay: Apoptotic cell death (Annexin V FACS) in lapatinib-resistant lines. It counts as cell-based. The following applies: all four resistant lines. The method, then: as §1, §2
The subject of a further assay is Erk1/2. Kind of assay: Immunoblot of phospho-Erk1/2 in lapatinib-treated cells. It counts as cell-based. The following applies: sensitive and resistant cells, 1 μM lapatinib, 50 μM z-VAD. For orientation: In western blotting, separated proteins are transferred to a membrane and probed.
Assay [3] relates to Mcl-1. Kind of assay: Immunoblot of Mcl-1 protein levels. It counts as cell-based. The conditions noted are these: 1 μM lapatinib. On the procedure: FIG. 3 is a set of photographs showing that Mcl-1 is stabilized in lapatinib-resistant cells. […] FIG. 3B is a set of immunoblots showing the levels of HER2 and phospho-HER2 in untreated cells and cells treated with lapatinib. Cells were treated with or without lapatinib (1 μM) for 24 hours in the presence of the caspase inhibitor z-VAD (50 μM). The cells were harvested and cell lysates were immunoblotted using antibodies against phospho-HER2 (Y877) and total HER2. FIG. 3C is an immunoblot for phospho-AKT (T308) and total AKT. BT474 and rBT474 cells were treated with 1 μM lapatinib in the presence of 50 μM z-VAD. At the indicated time points, the cells were harvested and immunoblotted. FIG. 3D is an immunoblot for phospho-Erl1/2(T202/Y204) and total Erk1/2. BT474 and rBT474 cells were treated with 1 μM lapatinib in the presence of 50 μM z-VAD. At the indicated time points, the cells were harvested and immunoblotted. FIG. 3E is an immunoblot for Mcl-1, Bim, and Actin. BT474 and rBT474 cells (left) or SKBR3 and rSKBR3 cells (right) were treated with 1 μM lapatinib. The cells were harvested at the indicated time points and immunoblotted. FIG. 3F is an autoradiograph showing the ^35[S] radioactivity in lysates containing ^35[S]-Mcl-1 at the indicated time points. ^35[S]-labeled Mcl-1 protein was incubated in cell-free lysates prepared from BT474 and rBT474 cells (top) or SKBR3 and rSKBR3 cells (bottom). FIG. 3G is an autograph showing the ^35[S]-labeled Mcl-1 to monitor Mcl-1 stability over time. The ^35[S]-labeled Mcl-1 was incubated in lysates prepared from rBT474 cells treated with or without 1 μM lapatinib. FIG. 3H is an immunoblot for HA. SKBR3 or rSKBR3 cells were co-transfected with FLAG-Mcl-1 and HA-Ubiquitin (Ub). […] Cells were harvested after treatment with 10 μM MG 132 for 4 hours. FLAG-Mcl-1 was retrieved by immunoprecipitation using anti-flag agarose, and Mcl-1 ubiquitylation was analyzed by immunoblotting for HA (*non-specific band, **IgG heavy chain).

Assay [4] relates to Mcl-1. The assay is described as follows: 35[S]-Mcl-1 degradation in cell-free lysates. The following applies: resistant cell lysates, only from cells treated with lapatinib (rBT474). It counts as cell-based. The method, then:
FIG. 3 is a set of photographs showing that Mcl-1 is stabilized in lapatinib-resistant cells. […] FIG. 3B is a set of immunoblots showing the levels of HER2 and phospho-HER2 in untreated cells and cells treated with lapatinib. Cells were treated with or without lapatinib (1 μM) for 24 hours in the presence of the caspase inhibitor z-VAD (50 μM). The cells were harvested and cell lysates were immunoblotted using antibodies against phospho-HER2 (Y877) and total HER2. FIG. 3C is an immunoblot for phospho-AKT (T308) and total AKT. BT474 and rBT474 cells were treated with 1 μM lapatinib in the presence of 50 μM z-VAD. At the indicated time points, the cells were harvested and immunoblotted. FIG. 3D is an immunoblot for phospho-Erl1/2(T202/Y204) and total Erk1/2. BT474 and rBT474 cells were treated with 1 μM lapatinib in the presence of 50 μM z-VAD. At the indicated time points, the cells were harvested and immunoblotted. […] FIG. 3F is an autoradiograph showing the ^35[S] radioactivity in lysates containing ^35[S]-Mcl-1 at the indicated time points. ^35[S]-labeled Mcl-1 protein was incubated in cell-free lysates prepared from BT474 and rBT474 cells (top) or SKBR3 and rSKBR3 cells (bottom). […] FLAG-Mcl-1 was retrieved by immunoprecipitation using anti-flag agarose, and Mcl-1 ubiquitylation was analyzed by immunoblotting for HA (*non-specific band, **IgG heavy chain). […]

For assay [5], the system named is caspase-9 / caspase-3 activation. Kind of assay: Cytochrome c-induced caspase activation in cell lysates. The assay is classed as cell-based. The following applies: lysates of resistant cells cultured in the presence of lapatinib.
Protocol: FIG. 7A is an immunoblot for caspase-9 (cleaved and non-cleaved) and cleaved caspase-3 (C9 and C3, respectively) showing rBT474 cells cultured in the absence or presence of 1 μM lapatinib for one week, as compared to BT474 cells which were maintained without lapatinib. Cytosolic lysates prepared from BT474 or rBT474 were incubated with 1 mM dATP and various amounts of cytochrome c (CC). FIG. 7B is a set of graphs showing Caspase 3 activity in the indicated cell lysates over time. Caspase-3 activity was assayed by measuring cleavage of DEVD-pNA following incubation of the cell lysates with 1 mM dATP and various concentrations of cytochrome c.
Cell lysates for apoptotic assays were prepared as described previously using buffer A (20 mM HEPES [pH 7.4], 10 mM KCl, 1.5 mM MgCl2, 1 mM EDTA, 1 mM EGTA, 1 mM dithiothreitol, 1 mM phenylmethylsulfonyl fluoride, 5 μg/ml leupeptin, and 5 μg/ml aprotinin). […]
Colorimetric caspase assays were performed by incubating cell lysate (3 μl) in 90 μl DEVDase buffer (50 mM HEPES [pH 7.5], 100 mMNaCl, 0.1% CHAPS, 10 mMDTT, 1 mMEDTA, 10% glycerol) containing the peptide substrate, Ac-DEVD-pNA (200 mM final concentration; BIOMOL Research Labs). […] Absorbance of the colorimetric product was measured at 405 nm using a Bio-Rad microplate reader.
The next assay deals with CAS. Kind of assay: Immunoblot of CAS protein levels. It counts as cell-based. On the procedure:
FIG. 11 is a set of photographs of immunoblots showing CAS degradation in lapatinib-resistant cells. FIG. 11A is an immunoblot for CAS and Actin. BT474 and rBT474 (left) or AU565 and rAU565 cells (right) cultured in the absence of lapatinib for one week were treated with 1 μM lapatinib and the cells were harvested at various time points. FIG. 11B is an immmunoblot for CAS and Actin. rBT474 cells were maintained in the presence of […] lapatinib and the cells were harvested at various time points following removal of lapatinib. FIG. 11C is an immunoblot for FLAG and actin. BT474 and rBT474 cells were transiently transfected with FLAG-tagged CAS and subsequently treated with 50 μg/ml cycloheximide (CHX) and 1 μM lapatinib and the cells were harvested at various time points. FIG. 11D is an immunoblot using HA to analyze ubiquitination of CAS. BT474 and rBT474 (left) or SKBR3 and rSKBR3 cells (right) were co-transfected with FLAG-CAS and HA-Ub. […] After treatment with 10 μM MG 132 for 8 hours, cells were harvested and FLAG-CAS was retrieved by immunoprecipitation. FIG. 11E is an immunoblot for FLAG-tagged proteins retrieved by immunoprecipitation and association with MDM2. H1299 cells were transfected with empty vector, FLAG-CAS^W127A, or FLAG-CAS wild type. FIG. 11F is an immunoblot for CAs after immunoprecipitation for FLAG. H1299 cells were transfected with empty vector, FLAG-CAS^W127A, or FLAG-CAS wild type. Cells were treated with 10 μM MG132 for 3 hours. […] SKBR3 cells were transfected with increasing amounts of MDM2. After 48 hours, cells were harvested and immunoblotted (*non-specific band). FIG. 11H is an immunoblot for CAS. […] FIG. 11I is an immunoblot for MDM2 or CAs after immunoprecipitation with FLAG. BT474 and rBT474 cells were transfected with FLAG-CAS. […] After treatment with 10 μM MG132 for 5 hours, FLAG-CAS was retrieved by immunoprecipitation and association of endogenous MDM2 was analyzed by immunoblotting.

The next assay deals with MDM2. The assay is described as follows: Immunoblot of MDM2 protein levels. The assay is classed as cell-based. The conditions noted are these: 1 μM lapatinib.
Another assay relates to rBT474 xenografts. Kind of assay: rBT474 mammary fat pad xenograft. The conditions noted are these: 100 mg/kg each drug, twice daily by oral gavage.
A further assay concerns rAU565-derived tumor. The assay is described as follows: rAU565 mammary fat pad xenograft. The following applies: 100 mg/kg each drug, twice daily by oral gavage.

Protocol for MDM2: Cells treated with 1 μM lapatinib were harvested at various time points and immunoblotted. […] BT474 and rBT474 cells were transiently transfected with HA-tagged Huwe1 and subsequently treated with 50 μg/ml cycloheximide (CHX) and 1 μM lapatinib. […] Immunoprecipitation was carried out using H1299 cell lysates and anti-Huwe1 antibody (or control IgG). […] BT474 cells were transfected with HA-tagged Huwe1 encoding the full-length protein, residues 1-2474, or residues 2473-4374. […] BT474 cells were transfected with increasing amounts of MDM2 and harvested after 48 hours. […] SUM190 cells were transfected with Scrambled or MDM2-specific siRNA (100 nM) and harvested after 72 hours. […] Ubiquitylation of Huwe1 was reconstituted in vitro by incubating recombinant Huwe1 protein (Huwe1^1-2474) with E1, UbcH5 (E2), ubiquitin (Ub), and recombinant MDM2 protein in reaction buffer at 37° C. for 3 hours. […] Twenty-four hours later, the cells were replated and further transfected with HA-tagged Huwe1 (wild type). Forty-eight hours after siRNA transfection, the cells were treated with 1 μM lapatinib. After 24 hours of lapatinib treatment, 50 μg/ml cycloheximide (CHX) was added to the culture medium and cells were harvested at various time points for immunoblotting.
Protocol for rAU565-derived tumor: Six week-old female nude mice were purchased from NCI Frederic. Xenograft tumors were produced by injection into the mammary fat pad with cells (10×10^6). Tumor volumes were calculated every 3-4 days based on caliper measurements of the short (a) and long (b) tumor diameters (volume=a2b/2). […] Mice were dosed orally with vehicle alone, lapatinib (100 mg/kg), Nutlin-3 (100 mg/kg), or combination of both twice daily by gavage.
Protocol for rBT474 xenografts: Forty-eight hours after siRNA transfection, cells were treated with 1 μM lapatinib for 48 hours, and cells were harvested and subjected to Annexin V staining. The percentage of Annexin V-positive cells was analyzed by FACS. Results are expressed as a mean percentage±SEM and analyzed by t-test (*P<0.05). […] The oral administration of lapatinib (100 mg/kg, twice daily by oral gavage) began when the average tumor volume surpassed 300 mm^3. Results are expressed as a mean percentage±SEM. […] After 36 hours, cells were harvested and immunoblotted. […] BT474 and rBT474 cells were injected into the mammary fad pad of each mouse. When tumors developed to a size of 200 mm^3, the mice were randomly assigned to receive vehicle, lapatinib (100 mg/kg), Nutlin-3 (100 mg/kg), or Lapatinib+Nutlin-3 and treated twice daily by oral gavage. Results are expressed as a mean percentage±SEM. […] Percentage of apoptotic cell death was measured by FACS analysis using Annexin V. Results are expressed as a mean percentage±SEM of Annexin V-positive cells (*P<0.05 by t-test).
Six week-old female nude mice were purchased from NCI Frederic. Xenograft tumors were produced by injection into the mammary fat pad with cells (10×10^6). Tumor volumes were calculated every 3-4 days based on caliper measurements of the short (a) and long (b) tumor diameters (volume=a2b/2). […]

Take `CS(=O)(=O)CCNCc1ccc(-c2ccc3ncnc(Nc4ccc(OCc5cccc(F)c5)c(Cl)c4)c3c2)o1` [lapatinib]: the “apoptotic cell death in response to lapatinib” value in assay [1] was “died from apoptosis”. Besides, in assay [2], the “cell death in response to lapatinib treatment” value was “did not die”. For the same compound, the “phosphorylation of Erk1/2” value in the assay with Erk1/2 was “attenuated”. Besides, the Mcl-1 protein levels entry in the assay with Mcl-1 [3] (resistant cells) is “increased”; with Mcl-1 [3] (sensitive cells) it was “decreased”. In the assay with Mcl-1 [4], the Mcl-1 protein half-life result is recorded as “prolonged”. Also, the “cytochrome c-induced caspase activation” value in [5] is listed as “strong defects in caspase activation”. Besides, the CAS protein levels entry in the assay with CAS (low-HER2 lines non-responsive to lapatinib (e.g., T47D cells)) is reported as “did not alter”; in the assay on CAS (parental cells, 1 μM lapatinib), “did not affect”; in the assay on CAS (resistant cells, 1 μM lapatinib), “declined over time”. For the same compound, the MDM2 levels result is given as “rapidly decreased” in the assay on MDM2 (parental cells) and “maintained” in the assay with MDM2 (resistant cells). Besides, in the assay on rBT474 xenografts, the rBT474-derived tumor growth entry is recorded as “Neither lapatinib nor Nutlin-3 inhibited”. Also, in the assay with rAU565-derived tumor, the rAU565-derived tumor growth result is recorded as “not rAU565-derived tumor growth”.

For the origin of these results see patent US9937178B2, “Methods of identifying and using MDM2 inhibitors” (DUKE UNIVERSITY, priority 2011, dated 2018).
